Results published in ChEMBL document CHEMBL5143597, “Design and synthesis of novel spirocyclic carboxylic acids as potent and orally bioavailable DGAT1 inhibitors and their biological evaluation” (Bioorg Med Chem Lett, 2022).

What was measured:
CYP1A2 = target: T1, CYP1A2 (Homo sapiens, UniProt P05177); experiment: Inhibition of recombinant human CYP1A2 at 25 uM by fluorescence plate reader analysis; format: ADME
T1 sequence (P05177 whole entry): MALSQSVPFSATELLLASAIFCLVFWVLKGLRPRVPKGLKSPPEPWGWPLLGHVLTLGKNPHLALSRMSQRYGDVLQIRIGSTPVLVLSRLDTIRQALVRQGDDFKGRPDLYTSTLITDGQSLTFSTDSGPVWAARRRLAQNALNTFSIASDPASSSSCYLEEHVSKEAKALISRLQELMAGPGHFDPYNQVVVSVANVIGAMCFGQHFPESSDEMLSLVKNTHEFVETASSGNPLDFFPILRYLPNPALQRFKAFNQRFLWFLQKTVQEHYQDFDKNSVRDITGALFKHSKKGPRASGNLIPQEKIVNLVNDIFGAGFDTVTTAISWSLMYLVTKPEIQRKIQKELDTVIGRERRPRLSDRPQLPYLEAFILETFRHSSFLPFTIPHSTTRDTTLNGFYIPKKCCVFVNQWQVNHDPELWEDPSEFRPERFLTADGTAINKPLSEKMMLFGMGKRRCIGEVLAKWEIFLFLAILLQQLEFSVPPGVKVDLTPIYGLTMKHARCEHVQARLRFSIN

CYP3A4 = CYP3A4 (Homo sapiens, UniProt P08684); experiment: Inhibition of recombinant human CYP3A4 at 25 uM by fluorescence plate reader analysis; format: ADME
CYP2D6 = CYP2D6 (Homo sapiens, UniProt P10635); experiment: Inhibition of recombinant human CYP2D6 at 25 uM by fluorescence plate reader analysis; format: ADME
[1] = Solubility of compound in PBS at pH 2 incubated for 4 hrs under shaking condition by UV absorbance based analysis; format: physicochemical
[2] = Solubility of compound in PBS at pH 4 incubated for 4 hrs under shaking condition by UV absorbance based analysis; format: physicochemical
[3] = Solubility of compound in PBS at pH 7.4 incubated for 4 hrs under shaking condition by UV absorbance based analysis; format: physicochemical
[4] = Solubility of compound in PBS at pH 9 incubated for 4 hrs under shaking condition by UV absorbance based analysis; format: physicochemical
[5] = target: T2, Diacylglycerol O-acyltransferase 1 (Homo sapiens, UniProt O75907); experiment: Inhibition of human DGAT1 in serum starved HEK293 cells assessed as inhibition of triglyceride synthesis incubated for 20 mins followed by 13C-addition of 13C-oleic acid pre-complexed with BSA for 120 mins by LC-MS-based mass spectrophotometric analysis; format: cell-based
T2 sequence (O75907 whole entry): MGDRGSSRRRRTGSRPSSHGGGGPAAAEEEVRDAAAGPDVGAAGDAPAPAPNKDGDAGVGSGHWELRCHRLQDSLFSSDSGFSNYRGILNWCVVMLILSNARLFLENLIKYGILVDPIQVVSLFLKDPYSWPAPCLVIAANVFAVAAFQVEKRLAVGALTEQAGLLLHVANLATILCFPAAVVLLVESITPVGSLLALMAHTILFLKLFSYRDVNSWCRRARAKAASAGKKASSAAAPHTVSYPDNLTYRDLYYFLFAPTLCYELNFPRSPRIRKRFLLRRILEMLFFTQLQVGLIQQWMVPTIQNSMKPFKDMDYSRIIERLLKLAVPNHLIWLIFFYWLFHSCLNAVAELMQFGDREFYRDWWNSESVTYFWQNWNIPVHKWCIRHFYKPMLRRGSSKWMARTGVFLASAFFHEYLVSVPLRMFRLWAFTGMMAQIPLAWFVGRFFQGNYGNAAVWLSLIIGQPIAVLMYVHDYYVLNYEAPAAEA

[6] = Metabolic stability in rat liver microsomes assessed as parent compound remaining at 1 uM and measured at 30 mins by LC-MS/MS analysis; format: ADME, Microsome; conditions: read-out: Stability
[7] = Metabolic stability in mouse liver microsomes assessed as parent compound remaining at 1 uM and measured at 30 mins by LC-MS/MS analysis; format: ADME, Microsome; conditions: read-out: Stability
[8] = Metabolic stability in human liver microsomes assessed as parent compound remaining at 1 uM and measured at 30 mins by LC-MS/MS analysis; format: ADME, Microsome; conditions: read-out: Stability
hERG (KCNH2) = hERG (KCNH2) (Homo sapiens, UniProt Q12809); experiment: Displacement of [3H]astemizole from human ERG expressed in HEK293 cell membrane at 30 uM for 2 hrs by Radiometric displacement assay; format: toxicity; conditions: HEK293 cell membranes that express hERG, probe [3H]astemizole
[9] = Plasma protein binding in rat; format: ADME, cell-free; conditions: read-out: PPB
[10] = Plasma protein binding in mouse; format: ADME, cell-free; conditions: read-out: PPB (converted)
[11] = Clearance in C57BL/6 mouse at 3 mg/kg, iv or 10 mg/kg, po and measured up to 24 hrs by LC-MS/MS analysis; format: ADME, organism-based; conditions: in vivo
[12] = Apparent permeability across apical to basolateral side in MDCK cells at 2.5 uM for 90 mins; format: ADME, cell-based, Canis lupus familiaris; conditions: dog
[13] = Volume of distribution at steady state in C57BL/6 mouse at 3 mg/kg, iv or 10 mg/kg, po and measured up to 24 hrs by LC-MS/MS analysis; format: ADME, organism-based; conditions: in vivo, read-out: Vdss
[14] = AUC in C57BL/6 mouse at 3 mg/kg, iv or 10 mg/kg, po and measured up to 24 hrs by LC-MS/MS analysis; format: ADME, organism-based; design: time < 24 hrs, dose 3 mg/kg, route iv; conditions: in vivo
[15] = Cmax in C57BL/6 mouse at 3 mg/kg, iv or 10 mg/kg, po and measured up to 24 hrs by LC-MS/MS analysis; format: ADME, organism-based; design: dose 3 mg/kg, time < 24 hrs, route iv; conditions: in vivo
[16] = Tmax in C57BL/6 mouse at 3 mg/kg, iv or 10 mg/kg, po and measured up to 24 hrs by LC-MS/MS analysis; format: ADME, organism-based; conditions: in vivo
[17] = Half life in C57BL/6 mouse at 3 mg/kg, iv or 10 mg/kg, po and measured up to 24 hrs by LC-MS/MS analysis; format: ADME, organism-based; conditions: in vivo
[18] = Oral bioavailability in C57BL/6 mouse 10 mg/kg or 3 mg/kg, iv and measured up to 24 hrs by LC-MS/MS analysis; format: ADME, organism-based; conditions: in vivo
[19] = Volume of distribution at steady state in Wistar rat at 3 mg/kg, iv or 10 mg/kg, po and measured up to 24 hrs by LC-MS/MS analysis; format: ADME, organism-based; conditions: in vivo, read-out: Vdss
[20] = Clearance in Wistar rat at 3 mg/kg, iv or 10 mg/kg, po and measured up to 24 hrs by LC-MS/MS analysis; format: ADME, organism-based; conditions: in vivo
[21] = AUC in Wistar rat at 3 mg/kg, iv or 10 mg/kg, po and measured up to 24 hrs by LC-MS/MS analysis; format: ADME, organism-based; design: dose 3 mg/kg, time < 24 hrs, route iv; conditions: in vivo
[22] = Cmax in Wistar rat at 3 mg/kg, iv or 10 mg/kg, po and measured up to 24 hrs by LC-MS/MS analysis; format: ADME, organism-based; design: dose 3 mg/kg, time < 24 hrs, route iv; conditions: in vivo
[23] = Tmax in Wistar rat at 3 mg/kg, iv or 10 mg/kg, po and measured up to 24 hrs by LC-MS/MS analysis; format: ADME, organism-based; conditions: in vivo
[24] = Half life in Wistar rat at 3 mg/kg, iv or 10 mg/kg, po and measured up to 24 hrs by LC-MS/MS analysis; format: ADME, organism-based; conditions: in vivo
[25] = Oral bioavailability in Wistar rat at 10 mg/kg or 3 mg/kg, iv and measured up to 24 hrs by LC-MS/MS analysis; format: ADME, organism-based; conditions: in vivo
[26] = Drug distribution in C57BL/6 mouse plasma 10 mg/kg, po and measured at 1 hrs post dose by LC-MS/MS analysis; format: ADME, organism-based
[27] = Drug distribution in C57BL/6 mouse plasma 10 mg/kg, po and measured at 2 hrs post dose by LC-MS/MS analysis; format: ADME, organism-based
[28] = Drug distribution in C57BL/6 mouse plasma 10 mg/kg, po and measured at 8 hrs post dose by LC-MS/MS analysis; format: ADME, organism-based
[29] = Drug distribution in C57BL/6 mouse adipose tissue 10 mg/kg, po and measured at 1 hrs post dose by LC-MS/MS analysis; format: ADME, organism-based; conditions: read-out: Ct
[30] = Drug distribution in C57BL/6 mouse adipose tissue 10 mg/kg, po and measured at 2 hrs post dose by LC-MS/MS analysis; format: ADME, organism-based; conditions: read-out: Ct
[31] = Drug distribution in C57BL/6 mouse adipose tissue 10 mg/kg, po and measured at 8 hrs post dose by LC-MS/MS analysis; format: ADME, organism-based; conditions: read-out: Ct
[32] = Drug distribution in C57BL/6 mouse liver 10 mg/kg, po and measured at 1 hrs post dose by LC-MS/MS analysis; format: ADME, organism-based; conditions: read-out: Ct
[33] = Drug distribution in C57BL/6 mouse liver 10 mg/kg, po and measured at 2 hrs post dose by LC-MS/MS analysis; format: ADME, organism-based; conditions: read-out: Ct
[34] = Drug distribution in C57BL/6 mouse liver 10 mg/kg, po and measured at 8 hrs post dose by LC-MS/MS analysis; format: ADME, organism-based; conditions: read-out: Ct
[35] = Drug distribution in C57BL/6 mouse skeletal muscle 10 mg/kg, po and measured at 1 hrs post dose by LC-MS/MS analysis; format: ADME, organism-based, Skeletal muscle tissue; conditions: read-out: Ct
[36] = Drug distribution in C57BL/6 mouse skeletal muscle 10 mg/kg, po and measured at 2 hrs post dose by LC-MS/MS analysis; format: ADME, organism-based, Skeletal muscle tissue; conditions: read-out: Ct
[37] = Drug distribution in C57BL/6 mouse skeletal muscle 10 mg/kg, po and measured at 8 hrs post dose by LC-MS/MS analysis; format: ADME, organism-based, Skeletal muscle tissue; conditions: read-out: Ct
[38] = Drug distribution in C57BL/6 mouse brain 10 mg/kg, po and measured at 1 hrs post dose by LC-MS/MS analysis; format: ADME, organism-based; conditions: read-out: Ct
[39] = Drug distribution in C57BL/6 mouse brain 10 mg/kg, po and measured at 2 hrs post dose by LC-MS/MS analysis; format: ADME, organism-based; conditions: read-out: Ct

CYP3A4, sequence (P08684 whole entry): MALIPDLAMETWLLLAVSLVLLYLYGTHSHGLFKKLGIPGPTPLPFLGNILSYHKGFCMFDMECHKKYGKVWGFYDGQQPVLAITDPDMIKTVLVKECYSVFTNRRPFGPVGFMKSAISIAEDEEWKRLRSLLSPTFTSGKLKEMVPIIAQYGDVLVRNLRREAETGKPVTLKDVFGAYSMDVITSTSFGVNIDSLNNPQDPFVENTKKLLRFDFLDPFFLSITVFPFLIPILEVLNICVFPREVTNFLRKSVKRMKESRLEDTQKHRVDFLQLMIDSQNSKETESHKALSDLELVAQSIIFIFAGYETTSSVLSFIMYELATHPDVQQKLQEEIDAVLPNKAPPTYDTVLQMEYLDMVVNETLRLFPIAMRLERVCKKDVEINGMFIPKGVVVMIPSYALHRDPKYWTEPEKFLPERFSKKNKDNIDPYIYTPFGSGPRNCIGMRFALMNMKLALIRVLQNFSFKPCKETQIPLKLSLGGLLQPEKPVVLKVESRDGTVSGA
CYP2D6, sequence (P10635 whole entry): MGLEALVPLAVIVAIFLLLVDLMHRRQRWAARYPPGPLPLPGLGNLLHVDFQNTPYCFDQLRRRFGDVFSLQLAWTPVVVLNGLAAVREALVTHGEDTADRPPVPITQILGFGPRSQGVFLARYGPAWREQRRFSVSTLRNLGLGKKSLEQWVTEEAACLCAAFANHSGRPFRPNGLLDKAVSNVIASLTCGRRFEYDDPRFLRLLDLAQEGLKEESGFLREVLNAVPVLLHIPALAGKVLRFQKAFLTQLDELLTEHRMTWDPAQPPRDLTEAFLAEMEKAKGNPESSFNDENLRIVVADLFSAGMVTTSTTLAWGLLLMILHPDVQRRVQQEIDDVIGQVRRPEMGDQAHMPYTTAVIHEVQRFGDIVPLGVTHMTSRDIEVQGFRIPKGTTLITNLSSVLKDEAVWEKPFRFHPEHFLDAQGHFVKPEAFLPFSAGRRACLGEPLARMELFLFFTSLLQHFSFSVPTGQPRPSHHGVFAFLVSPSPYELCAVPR
hERG (KCNH2), sequence (Q12809 whole entry): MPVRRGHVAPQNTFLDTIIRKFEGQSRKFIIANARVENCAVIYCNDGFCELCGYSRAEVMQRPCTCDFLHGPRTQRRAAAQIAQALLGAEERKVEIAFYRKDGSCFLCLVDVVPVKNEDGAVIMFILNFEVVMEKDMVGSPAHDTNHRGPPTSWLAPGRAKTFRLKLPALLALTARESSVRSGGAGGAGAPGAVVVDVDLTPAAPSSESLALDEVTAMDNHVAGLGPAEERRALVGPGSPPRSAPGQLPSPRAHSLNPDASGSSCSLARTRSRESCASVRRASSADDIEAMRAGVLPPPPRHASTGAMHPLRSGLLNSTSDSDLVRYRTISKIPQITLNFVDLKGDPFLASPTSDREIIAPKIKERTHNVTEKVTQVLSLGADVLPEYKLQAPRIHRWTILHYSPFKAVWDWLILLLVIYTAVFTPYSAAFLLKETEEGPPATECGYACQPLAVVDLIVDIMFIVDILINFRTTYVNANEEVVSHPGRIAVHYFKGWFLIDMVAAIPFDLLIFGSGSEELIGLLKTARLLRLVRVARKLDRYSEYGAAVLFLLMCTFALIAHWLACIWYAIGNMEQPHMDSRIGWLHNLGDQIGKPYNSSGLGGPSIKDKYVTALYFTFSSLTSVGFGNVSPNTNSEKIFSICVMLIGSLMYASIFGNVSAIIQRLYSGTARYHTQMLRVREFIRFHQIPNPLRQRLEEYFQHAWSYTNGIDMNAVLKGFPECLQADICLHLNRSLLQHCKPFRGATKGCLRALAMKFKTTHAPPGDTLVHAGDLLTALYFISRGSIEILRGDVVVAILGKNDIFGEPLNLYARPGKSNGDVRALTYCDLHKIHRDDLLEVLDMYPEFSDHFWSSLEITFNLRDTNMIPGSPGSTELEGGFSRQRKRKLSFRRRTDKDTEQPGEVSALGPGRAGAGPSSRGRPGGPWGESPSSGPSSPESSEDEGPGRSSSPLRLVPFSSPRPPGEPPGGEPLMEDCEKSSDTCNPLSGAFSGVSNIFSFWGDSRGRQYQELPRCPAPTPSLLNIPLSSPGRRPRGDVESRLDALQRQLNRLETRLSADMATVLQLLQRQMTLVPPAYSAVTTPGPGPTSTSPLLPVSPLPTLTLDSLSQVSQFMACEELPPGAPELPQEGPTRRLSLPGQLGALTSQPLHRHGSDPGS

O=C([O-])CC1CCC2(CC1)CCC(c1ccc(NC(=O)c3nnc(Nc4ccc(F)c(F)c4)o3)cn1)CC2.[Na+] (stereo not given)
inhibition at 25 µM (CYP1A2): 13%
inhibition at 25 µM (CYP3A4): 17%
inhibition at 25 µM (CYP2D6): 5%
solubility at 4 h [1]: < 6 µM
solubility at 4 h [2]: < 6 µM
solubility at 4 h [3]: < 6 µM
solubility at 4 h [4]: 9 µM

O=C(O)C[C@H]1CC[C@H](c2ccc(-c3ccc(Nc4ccc(C(F)(F)F)nc4)cn3)cc2)CC1 [PRADIGASTAT]
IC50 [5]: 66 nM

O=C(O)CC1CCC2(CC1)CCC(c1ccc(NC(=O)c3nnc(Nc4ccc(F)c(F)c4)o3)cn1)CC2 (stereo not given)
IC50 [5]: 16 nM
remaining at 0.5 h, 1 µM [6]: 71%
remaining at 0.5 h, 1 µM [7]: 88%
remaining at 0.5 h, 1 µM [8]: 100%
inhibition at 2 h, 30 µM (hERG (KCNH2)): 26%
fraction unbound [9]: < 0.01
fraction unbound [10]: 0.03
clearance [11]: 21 mL/min/kg
Papp A→B at 1.5 h, 2.5 µM [12]: 4.7 ×10⁻⁶ cm/s
Vd [13]: 1.8 L/kg
AUC at 24 h [14]: 4.4 µM·h
Cmax [15]: 2600 nM
Tmax [16]: 0.5 h
half-life [17]: 2.1 h
bioavailability [18]: 53%
Vd [19]: 0.5 L/kg
clearance [20]: 1.2 mL/min/kg
AUC at 24 h [21]: 23.7 µM·h
Cmax [22]: 3800 nM
Tmax [23]: 1.3 h
half-life [24]: 6.4 h
bioavailability [25]: 9%
concentration at 1 h [26]: 2760 nM
concentration at 2 h [27]: 1860 nM
concentration at 8 h [28]: 80 nM
concentration at 1 h [29]: 740 nM
concentration at 2 h [30]: 470 nM
concentration at 8 h [31]: 110 nM
concentration at 1 h [32]: 74000 nM
concentration at 2 h [33]: 73000 nM
concentration at 8 h [34]: 28000 nM
concentration at 1 h [35]: 520 nM
concentration at 2 h [36]: 290 nM
concentration at 8 h [37]: 70 nM
concentration at 1 h [38]: 20 nM
concentration at 2 h [39]: 60 nM

O=C(Nc1ccc(N2CCC3(CC2)CC(C(=O)[O-])C3)nc1)c1nnc(Nc2ccc(F)c(F)c2)o1.[Na+]
inhibition at 25 µM (CYP1A2): 12%
inhibition at 25 µM (CYP3A4): 10%
solubility at 4 h [1]: 179 µM
solubility at 4 h [2]: 36 µM
solubility at 4 h [3]: 1060 µM
solubility at 4 h [4]: 723 µM
